These results are taken from patent US10519138B2, “Modulators of SOCE, compositions, and uses thereof” (Università degli Studi del Piemonte Orientale “Amedeo …, priority 2016, dated 2019).

One experiment relates to Orai1 mutated proteins. Kind of experiment: SOCE in HEK cells overexpressing wild-type or mutated Orai1 (Fura2-AM single cell analysis). Type of experiment: cell-based, human. The settings on record: 10 μM. On the procedure:
(§1) SOCE induced by tBHQ in wilde-type HEK cells or HEK cells overexpressing the indicated STIM1 (A) or Orai1 (B) proteins. Average traces of approx. 600 cells from 20 coverslips performed on 4 separate days for each condition.
(§2) 3-(1-(4-(4-(ethoxycarbonyl)-5-(trifluoromethyl)-1H-pyrazol-1-yl)phenyl)-1H-1,2,3-triazol-4-yl)benzoic acid 10 μM impairs SOCE both in Wild-type and STIM1 (A) or Orai1 (B) mutated cells.
(§3) HEK STIM1 c.326A>G p.H109R (A) and HEK Orai1 c.734C>T p.P245L (B) cells were assayed for a calcium response to different concentrations of 3-(1-(4-(4-(ethoxycarbonyl)-5-(trifluoromethyl)-1H-pyrazol-1-yl)phenyl)-1H-1,2,3-triazol-4-yl)benzoic acid (1-3-10-30-100 μM) using Fura2-AM single cell analysis. Concentration-response curves represent the AUC % of 3-(1-(4-(4-(ethoxycarbonyl)-5-(trifluoromethyl)-1H-pyrazol-1-yl)phenyl)-1H-1,2,3-triazol-4-yl)benzoic acid.
(§4) Human embryonic kidney HEK cells were obtained from ATCC (ATCC® CRL-1573™, Rockville, Md., USA) and were cultured in Dulbecco's Modified Eagle's Medium (DMEM; Sigma-Aldrich, Italy), supplemented with 10% heat-inactivated FBS (Gibco, Italy), 1-glutamine 50 mg/mL (Sigma-Aldrich, Italy), penicillin 10 U/mL and streptomycin […] (Sigma-Aldrich, Italy) at 37° C., under a 5% CO2 humidified atmosphere. […]

The test system of experiment [1] is Store Operated Calcium Entry (SOCE) in Jurkat cells. Kind of experiment: Fura-2 single-cell Ca2+ measurement of tBHQ-induced SOCE in Jurkat cells. Conditions: for inhibition at 10 µM: Homo sapiens, SOCE modulation based on tBHQ-induced calcium influx. It is filed as cell-based, human. On the procedure: Immortalized line of human T lymphocyte Jurkat cells were achieved from ATCC (ATCC® TIB-152™, Rockville, Md., USA) and were cultured in Roswell Park Memorial Institute Medium (RPMI 1640; Sigma-Aldrich, Italy), supplemented with 10% heat-inactivated FBS (Gibco, Italy), 1-glutamine 50 mg/mL (Sigma-Aldrich, Italy), penicillin 10 U/mL and streptomycin […] (Sigma-Aldrich, Italy) at 37° C., under a 5% CO2 humidified atmosphere. For experiments, the cells were plated onto glass coverslips at concentrations of 6×10^4 per mL (24 mm diameter coverslips in 6 well plates).
Compounds were also tested on Jurkat cells in single-cell analysis using Fura-2 AM on cover-slips. Jurkat cells were loaded with 5 μM Fura-2 AM in presence of 0.02% of Pluronic-127 (both from Life Technologies, Italy) and 1 μM sulfinpyrazone in Krebs-Ringer buffer (KRB, 135 mM NaCl, 5 mM KCl, 0.4 mM KH2PO4, 1 mM MgSO4, 5.5 mM glucose, 20 mM HEPES, pH 7.4) containing 2 mM CaCl2 (30 min, room temperature). Afterwards, cells were washed and incubated with KRB for other 30 min to allow de-esterification of Fura-2AM. To measure store operated calcium entry, changes in cytosolic Ca^2+ were monitored upon depletion of the intracellular Ca^2+ stores. Experiments were carried out prior to and during exposure of the cells to the Ca^2+-free solution. In the absence of Ca^2+, the intracellular Ca^2+ stores were depleted by inhibition of the vesicular Ca^2+ pump by 2,5-t-butylhydroquinone (tBHQ, 50 μM; Sigma-Aldrich, Italy). Re-addition of 2 mM Ca^2+ allowed assessing the SOCE. During the experiments the cover-slips were mounted into acquisition chamber and placed on the stage of a Leica DMI6000 epi-fluorescent microscope equipped with S Fluor ×40/1.3 objective. Fura-2 was excited by alternate 340 and 380 nm using a Polychrome IV mono-chromator (Till Photon-ics, Germany) and the probe emission light was filtered through 520/20 band-pass filter and collected by a cooled CCD camera (Hamamatsu, Japan). The fluorescence signals were acquired and processed using MetaFluor software (Molecular Device, Sun-Nyvale, C A, USA). To quantify the differences in the amplitudes of Ca^2+ transients the ratio values were normalized using the formula ΔF/F0 (referred to as normalized Fura-2 ratio, “Norm. Fura ratio”). The percentage of SOCE modulation for each of 15 compounds was determined based on value of tBHQ-induced calcium influx into Jurkat cells. Data were analysed using Microsoft Excel and GraphPad Prism.

The test system of experiment [2] is Store Operated Calcium Entry (SOCE) in BV-2 cells. Kind of experiment: Fluo-4 fluorimetric assay of tBHQ-induced store operated calcium entry in BV-2 cells. The settings on record: for inhibition at 10 µM: Mus musculus, SOCE inhibition based on tBHQ-induced calcium influx. It is filed as cell-based, mouse. As for the experimental part: (A) BV-2 cells were plated in poly-d-lysine coated 24-well plate and incubated overnight. After 24 hours, cells were loaded with 2 μM Fluo-4 and placed in an extracellular solution containing 0 mM Ca^2+. Stores were depleted with 50 μM tBHQ and calcium influx was stimulated by the addition of 2 mM Ca^2+ alone (Ctrl), or in conbination with: compound with no activity (NM-3A), and compounds that positively (4-(1-(4-(3,5-bis(trifluoromethyl)-1H-pyrazol-1-yl)phenyl)-1H-1,2,3-triazol-4-yl)benzoic acid) and negatively (3-(1-(4-(4-(ethoxycarbonyl)-5-(trifluoromethyl)-1H-pyrazol-1-yl)phenyl)-1H-1,2,3-triazol-4-yl)benzoic acid) regulate SOCE. Calcium responses are expressed as changes in fluorescence intensity before and after the addition of selected modulators. (B) BV-2 cells were assayed for a calcium response to different concentrations of 3-(1-(4-(4-(ethoxycarbonyl)-5-(trifluoromethyl)-1H-pyrazol-1-yl)phenyl)-1H-1,2,3-triazol-4-yl)benzoic acid and 4-(1-(4-(3,5-bis(trifluoromethyl)-1H-pyrazol-1-yl)phenyl)-1H-1,2,3-triazol-4-yl)benzoic acid (0.1-0.3-1-3-10-30-100 μM) using Fluo-4 fluorimetric assay. Concentration-response curves represent the AUC % of both compounds as compared to positive control.
Immortalized primary mouse microglial BV-2 cells were obtained from ATCC (ATCC® CRL-2540™, Rockville, Md., USA) and were cultured in Dulbecco's Modified Eagle's Medium (DMEM; Sigma-Aldrich, Italy), supplemented with 10% heat-inactivated FBS (Gibco, Italy), 1-glutamine 50 mg/mL (Sigma-Aldrich, Italy), penicillin 10 U/mL and streptomycin […] (Sigma-Aldrich, Italy) at 37° C., under a 5% CO2 humidified atmosphere. For experiments, the cells were plated 2×10^4 per ml in 24 well plates) or onto glass coverslips at concentrations of 4×10^4 per mL (24 mm diame-ter coverslips in 6 well plates).
BV-2 cells were loaded with 5 μM Fluo-4 AM in presence of 0.02% of Pluronic-127 (both from Life Technologies, Italy) and 10 μM sulfinpyrazone in Krebs-Ringer buffer (KRB, 135 mM NaCl, 5 mM KCl, 0.4 mM KH2PO4, 1 mM MgSO4, 5.5 mM glucose, 20 mM HEPES, pH 7.4) containing 2 mM CaCl2 (30 min, room temperature). Subsequently, cells were washed and incubated with KRB for other 30 min to allow de-esterification of Fluo-4 AM. Experiments were carried out prior to and during exposure of the cells to the Ca^2+-free solution. In the absence of Ca^2+, the intracellular Ca^2+ stores were depleted by 2,5-t-butylhydroquinone (tBHQ, 50 μM; Sigma-Aldrich, Italy), a SERCA poison, and then calcium 2 mM was re-added to the extracellular solution. Fluorescence is then monitored sequentially for a second in each well for 600 seconds with excitation at 494 nm and an emission wavelength at 516 nm on the V3 Victor plate-reader (Perkin Elmer), generating time-curves for each well. Data were analysed using Microsoft Excel and GraphPad Prism.
The percentage of SOCE inhibition for each compound was determined based on value of tBHQ-induced calcium influx into BV-2 cells (Table 2).

A further experiment concerns STIM1 mutated proteins. Kind of experiment: SOCE in HEK cells overexpressing wild-type or mutated STIM1 (Fura2-AM single cell analysis). Conditions: 10 μM. It is filed as cell-based, human. On the procedure:
as §1, §2, §3, §4

The next experiment has as its target ICRAC (Homo sapiens, UniProt Q96D31). The settings on record: read-out: IC50 (inhibition of ICRAC); cited from earlier work.

Where “and” joins values, the source holds several entries; their conditions need not be identical. Equal values may be shown once. Entries after “also recorded” stand apart in the source; their conditions may differ.

Chain of ICRAC (Q96D31 whole entry): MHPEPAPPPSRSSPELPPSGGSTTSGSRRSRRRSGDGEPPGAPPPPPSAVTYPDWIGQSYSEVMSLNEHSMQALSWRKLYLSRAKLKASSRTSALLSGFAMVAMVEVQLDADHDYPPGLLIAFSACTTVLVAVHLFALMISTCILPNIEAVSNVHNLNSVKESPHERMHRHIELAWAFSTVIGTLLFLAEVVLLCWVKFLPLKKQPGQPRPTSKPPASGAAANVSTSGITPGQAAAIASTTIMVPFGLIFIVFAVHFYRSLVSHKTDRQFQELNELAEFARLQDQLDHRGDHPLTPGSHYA

Usually inhibition stands for the percentage by which the read-out fell short of the control. Take `CCOC(=O)c1cnn(-c2ccc(-n3cc(-c4cccc(C(=O)O)c4)nn3)cc2)c1C(F)(F)F` [3-(1-(4-(4-(ethoxycarbonyl)-5-(trifluoromethyl)-1H-pyrazol-1-yl)phenyl)-1H-1,2,3-triazol-4-yl)benzoic acid]: in the experiment on Orai1 mutated proteins, the “Effect on SOCE in wild-type and Orai1 mutated cells (FIG. 4B)” value is “impairs SOCE; also recorded: able to revert the over-activation”. Also, the inhibition at 10 µM in experiment [1] was found to be 70.4%; in experiment [2] (10 μM) it was 45.3%. The “Regulation of SOCE (calcium response, representative traces FIG. 2A)” value in experiment [2] (Fluo-4, 50 μM tBHQ, 2 mM Ca2+ re-addition) is listed as “negatively”. Moreover, the “Effect on SOCE in wild-type and STIM1 mutated cells (FIG. 4A)” value with STIM1 mutated proteins was “impairs SOCE; also recorded: able to revert the over-activation”.

Consider `CCOC(=O)c1cnn(-c2ccc(-c3cn(CCCC(=O)O)nn3)cc2)c1C(F)(F)F` [4-(4-(4-(4-(ethoxycarbonyl)-5-(trifluoromethyl)-1H-pyrazol-1-yl)phenyl)-1H-1,2,3-triazol-1-yl)butanoic acid], for which the inhibition at 10 µM was found to be 19.1% in experiment [1] and 30.1% in experiment [2] (10 μM).

One may read the IC50 as the point on the concentration scale where inhibition reaches its midpoint. On to `COc1ccc(OC)c(-c2ccc(NC(=O)c3ccncc3F)cc2)c1` [Synta66], for which, on ICRAC, the IC50 was 300 nM.

In the case of `CCOC(=O)c1cnn(-c2ccc(-c3cn(-c4ccncc4F)nn3)cc2)c1C(F)(F)F` [ethyl 1-(4-(1-(3-fluoropyridin-4-yl)-1H-1,2,3-triazol-4-yl)phenyl)-5-(trifluoromethyl)-1H-pyrazole-4-carboxylate], the inhibition at 10 µM in experiment [1] was found to be 32.9%; in experiment [2] (10 μM), 37.7%.

On to `CCOC(=O)c1cnn(-c2ccc(-c3cn(-c4ccc(Cl)cc4)nn3)cc2)c1C(F)(F)F` [ethyl 1-(4-(1-(4-chlorophenyl)-1H-1,2,3-triazol-4-yl)phenyl)-5-(trifluoromethyl)-1H-pyrazole-4-carboxylate], for which the “% Activation (10 μM)” value is 122.94% and 126.78% and 97.32% in experiment [1]; 47.07% in experiment [2] (10 μM, potentiation of calcium entry).

Take `CCOC(=O)c1cnn(-c2ccc(-n3cc(-c4ccc(O)c(OC)c4)nn3)cc2)c1C(F)(F)F` [ethyl 1-(4-(4-(4-hydroxy-3-methoxyphenyl)-1H-1,2,3-triazol-1-yl)phenyl)-5-(trifluoromethyl)-1H-pyrazole-4-carboxylate]: the figures for the inhibition at 10 µM in experiment [1] and in experiment [2] (10 μM) were 78.4% and 35%, respectively.
